Tests used:
Lewis lung cancer cells = experiment: Lewis lung cancer metastasis model in mice (Example 8); format: in vivo, C57BL/6 mouse; conditions: 50, 25, 5 mg/kg intragastric, twice a day, 21 days; P<0.01
Protocol: 5) A lung cancer model of mouse is established by subcutaneous inoculation of Lewis lung cancer cells in C57BL/6 mouse, because of the characteristic of Lewis lung cancer cell of specific metastasis toward the lung, and the ability of a drug for inhibiting the metastasis of the tumor cells may be determined by counting the number of the metastatic tumors on lung.
The ability of (S)2-(4′-methyl-3′-nitrobenzoylamino)-3-phenylpropionic acid for inhibiting tumor metastasis in vivo was tested by Lewis lung cancer metastasis model in mice.
1) Mice grouping, C57BL/6 of SPF grade, 5 weeks old, 18˜22 g, 8 mice for each group. half male and half female;
2) The mother liquid of (S)2-(4′-methyl-3′-nitrobenzoylamino)-3-phenylpropionic acid for dosage form for oral administration was diluted with 1.5% CMC-Na solution to 5 mg/mL, 2.5 mg/mL, 0.5 mg/mL. The dosage for administration in mice was as follows, high dosage group of 50 mg/kg; Medium dosage group of 25 mg/kg; low dosage group of 5 mg/kg. The negative control was 1.5% CMC-Na solution; The positive control was 10 mg/mL of dosage form of 4-methyl-3-nitrobenzoic acid for oral administration, with dosage for administration of 100 mg/kg; […]
5) After the completion of the experiment, the mice were sacrificed and the lungs were made into paraffin tissue sections, then stained by HE and the number of tumors were counted under microscope;

[1] = Acute toxicity assay in mice, oral administration (Example 10); conditions: both sexes, mouse, in vivo, 5000 mg/kg; oral administration, Kunming mice
Protocol: (§1) The medium lethal dose of (S)2-(4′-methyl-3′-nitrobenzoylamino)-3-phenylpropionic acid via oral administration was tested by acute toxicity assay in mice.
(§2) 1) Mice grouping: Kunming mice of clean grade, 10 weeks old, 30˜40 g body weight, 5 mice for each group, and all of the mice were males or females.
(§3) 2) 3.2 g (S)2-(4′-methyl-3′-nitrobenzoylamino)-3-phenylpropionic acid was added to 8 mL solution of 3% sodium carboxymethylcellulose solution, and the mixture was homogenated for 5 min at 30000 rpm with a homogenizer. Each mouse undergone administration of intragastric infusion with 0.5 ml at a dosage of 5000 mg/kg. […] If the death number was […], the LD50 was regarded as more than 5000 mg/kg; if the death number equals to or was more than 3, the main experiments will be performed. The experiment was repeated for 3 times and the result was recorded as follows: […]

Kunming mice = experiment: as above; conditions: Kunming, mouse, in vivo, 14 days
Protocol: as §1, §2, §3

[2] = system: human breast cancer cell MDA-MB-231; experiment: Scratch assay, migration of MDA-MB-231 (Example 3); format: cell-based; conditions: 0.5, 1, 2, 4 μmol/L, 0-24 h
Protocol: The inhibiting ability of (S)2-(4′-methyl-3′-nitrobenzoylamino)-3-phenylpropionic acid for the migration of human breast cancer cell MDA-MB-231 was tested by scratch assay.
The MDA-MB-231 cells in logarithmic growth phase were plated in the 6-well plate with the density of 1×10^6/3 mL, and the drug was added after 12 h, with 100 μL per well. The final concentrations of (S)2-(4′-methyl-3′-nitrobenzoylamino)-3-phenylpropionic acid (TCI04) were 0.5, 1, 2, and 4 μmol/L, respectively. The negative control was 100 μL sterilized water with 2% DMSO and the positive control was 1 μmol/L 4-methyl-3-nitrobenzoic acid (TCI01). After 12 h, the culture medium was removed, and the plate was washed 3 times with PBS, and 3 ml culture medium without fetal bovine serum and 100 μL drug (concentration was the same as above) per well were added. 12 h later, 10 μL tips were used to scratch, and after washing 4 times with PBS, 3 ml culture medium without fetal bovine serum per well was added. The distance of cell migration was recorded every 3 h under the inverted microscope, and the photos were taken at 0 h and 24 h.

[3] = system: human lung adenocarcinoma cell A549; experiment: Scratch test, migration of A549 (Example 4); format: cell-based; conditions: 4 and 100 μmol/L, 0-36 h
Protocol: The inhibiting ability of (S)2-(4′-methyl-3′-nitrobenzoylamino)-3-phenylpropionic acid for the migration of human lung adenocarcinoma cell A549 was tested by scratch test.
A549 cells in logarithmic growth phase were plated in the 6-well plate with the density of 5×10^5/3 mL, and after 12 h, the drug was added, with 100 μL per well. The final concentrations of (S)2-(4′-methyl-3′-nitrobenzoylamino)-3-phenylpropionic acid (TCI04) were 4 and 100 μmol/L respectively. The negative control was 100 μL sterilized water with 2% DMSO and the positive control was 4, 100 μmol/L 4-methyl-3-nitrobenzoic acid (TCI01). After 36 h, the medium was removed, and after washing 3 times with PBS, 3 ml culture medium without fetal bovine serum and 100 μL drug (concentration was as above) per well were added. 6 h later, 200 μL tips were used to scratch, and after washing 4 times with PBS, 3 ml medium without fetal bovine serum per well was added. The distance of cell migration was recorded every 3 h under the inverted microscope, and photos were taken at 0 h and 36 h.

## Cc1ccc(C(=O)N[C@@H](Cc2ccccc2)C(=O)O)cc1[N+](=O)[O-] [(S)2-(4′-methyl-3′-nitrobenzoylamino)-3-phenylpropionic acid]
Lewis lung cancer cells
  number of the tumors on the lungs compared with the negative control: very significant difference
[1]
  LD50 at 14 days: > 5000 mg/kg
Kunming mice; female
  Death number, Female mice, The first test: 2
  Death number, Female mice, The second test: 2
  Death number, Female mice, The third test: 1
Kunming mice; male
  Death number, Male mice, The first test: 2
  Death number, Male mice, The second test: 1
  Death number, Male mice, The third test: 1
[2]
  inhibition of migration ability (coalescence speed of cell scratch vs negative control): significantly inhibited
[3]
  inhibition of migration ability (coalescence speed of cell scratch vs negative control): significantly inhibited

From patent US10512627B2, “Anti-tumor compound and the medical use thereof” (Tianjin Medical University Cancer Institute and Hospital, priority 2014, dated 2019)
